Experiments:
[1] = system: M2 macrophages differentiated from the human THP-1 monocytic cell line; assay: THP-1 polarization assay and CCL-4 ELISA; format: cell-based; details: M2 macrophages from THP-1 (IL-4 polarized); 20 μM peptide with NLS-TAT appendage; 48 h; versus untreated
Description: ATF3 is a transcriptional repressor that regulates both the extent and duration of pro-inflammatory gene expression.[17] Specifically, ATF3 has been implicated in the transcriptional repression of chemokines including chemokine (C–C motif) ligand 4 (CCL4),[18] also known as macrophage inflammatory protein (MIP-1β), which promotes recruitment of additional immune cells to inflamed tissues. In the context of cancer, ATF3 activity counters antitumor immunity and promotes tumor growth. We therefore explored the effect of the ATF3W-aeg antagonist peptide on CCL4 expression in M2 anti-inflammatory macrophages differentiated from the human THP-1 monocytic cell line. […]
Figure 10 ATF3W-aeg peptide stimulates expression of pro-inflammatory cytokine in M2 macrophages. CCL4 protein levels were measured by ELISA from supernatants of M2 macrophage cultures treated with either 20 μM ATF3W-aeg or negative control peptide (****p < 0.0001). […]
THP-1 cells were seeded in 12-well format at a concentration of 5 × 10^5 cells/well and treated with 7.5 ng/mL Phorbol 12-Myristate 13-Acetate (PMA, Sigma-Aldrich) in RPMI media supplemented with 10% FBS and 55 μM β-mercaptoethanol (BME). […] After 48 h, supernatants were collected and clarified by centrifugation, and the CCL-4 concentration was assessed by ELISA (MIP-1b Human Instant ELISA Kit, ThermoFisher Scientific) according to the manufacturer’s protocol.

ATF3 = target: T1, ATF3 (Homo sapiens, UniProt P18847); assay: CD thermal denaturation of peptide mixed 1:1 with ATF3; format: binding; details: peptide incubated with ATF3; CD signal at 222 nm, 1 °C increments; 150 μM total peptide; 10 mM potassium phosphate, 100 mM potassium fluoride, pH 7.0; two-state denaturation model
T1 construct: We focus on the selective targeting of the ATF3 leucine zipper dimerization domain using intracellular peptide library screening; made in house; host or cells: chemical solid-phase peptide synthesis (no expression host)
T1 sequence (P18847 110-143): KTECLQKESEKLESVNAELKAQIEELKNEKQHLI
Description: Following the observed significant increase in global secondary structure content for the ATF3-ATF3W_aeg complex relative to component peptides (Figure 6), we next analyzed the stability of the complex by undertaking thermal denaturation experiments (Figure 7). […] Moreover, consistent with spectral data, the clear increase from the average profile of the component peptides relative to that of the measured is most pronounced in the combined construct (Figure 7, red hash vs black). This provides robust additional evidence for a preferential interaction between ATF3 and ATF3W_aeg that is improved over either the core a or electrostatic e/g constructs.
Shown are thermal stabilities of peptide pairs measured via temperature dependence of the CD signal at 222 nm. The thermal denaturation profiles for (a) ATF3-ATF3W_a, (b) ATF3-ATF3W_eg, and (c) ATF3-ATF3W_aeg show a substantial increase in the transition midpoint (Tm = 59 °C) relative to component peptides (black vs red hash). Experiments were performed in 10 mM potassium phosphate and 100 mM potassium fluoride (pH 7.0). All spectra were recorded at 1 °C increments at a total peptide concentration of 150 μM and fitted to a two-state denaturation model.
Thermal denaturation experiments were performed at 150 μM total protein concentration in 10 mM potassium phosphate and 100 mM potassium fluoride, pH 7, using an Applied Photophysics Chirascan CD instrument (Leatherhead, UK) as previously described.[23]

ATF3W_aeg = target: T2, ATF3W_aeg (synthetic construct); assay: ITC
T2 chain: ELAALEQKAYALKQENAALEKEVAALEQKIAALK

Molecule | transition midpoint (Tm) of heterodimer with ATF3 (ATF3) | further results
Ac-KAAALKQKAYALKQQIAALKKQVAALKQKIAALKPKKKRKVYGRKKRRQRRR-NH2 [Fra1W-NLS TAT, reference compound] |  | effect on CCL4 expression (protein in supernatant, ELISA) [1]: no effect
EAAALEQKIYALKQEAAALEKEIAALEQKAAALK [ATF3W_eg] | 52 °C | 
QLAALQQQAYALQQQNAALQKQVAALQQQIAALQ [ATF3W_a] | 26 °C | 
TECLQKESEKLESVNAELKAQIEELKNEKQHLIYM [ATF3 leucine zipper] |  | Kd (ATF3W_aeg): 151 nM

Reference: PMC10949195, “Exponential Combination of a and e/g Intracellular Peptide Libraries Identifies a Selective ATF3 Inhibitor” (ACS Chemical Biology, 2024)
